Test results: patent US20050158321A1, “Treatment of rheumatoid arthritis with galectin-3 antagonists” (Entelos, Inc., priority 2003, published 2005)

Key:
[1] = test system: arthritis induced by monoclonal antibodies raised against type II collagen, plus lipopolysaccharide; assay: Inflammation, Collagen Arthritis, mAb in Mice (hind paw volume); assay type: in vivo, BALB/c mice
Experimental: Galectin-3 Ab was evaluated for possible anti-inflammatory activity in BALB/c mice with arthritis induced by monoclonal antibodies (mAb) raised against type II Collagen, plus lipoplysaccharide. Galectin-3 Ab (1, 0.5 and 0.25 mg/mouse×3) was administered intraperitoneally once daily for 3 consecutive days starting on day 3. Volumes of both hind paws were measured on days 5, 7, 10, 14 and 17 and the sum of both hind paw volumes was calulated. A 30% percent or more reduction (−30%) relative to the vehicle-treated group indicates significant.
Galectin-3 Ab, B2C10 from Pharmingen, was dissolved in distilled water. Test substance at 1, 0.5 and 0.25 mg/mouse and vehicle were each administered intraperitoneally once daily for 3 consecutive days starting on day 3. The dosing volume was 0.2 ml/mouse for the test compound or 10 ml/kg (PO) for indomethacin. All treatments are summarized below:
Collagen Arthritis, mAb Groups of 7 BALB/c strain mice, 6-7 weeks of age, were used for the induction of arthritis by monoclonal antibodies (mAbs) raised against type II collagen, plus lipopolysaccharide (LPS). A combination of 4 different mAbs (D8, F10, DI-2G and A2) totaling 4 mg/mouse was administered to the animals intravenously on day 0, followed by intravenous challenge with […] of LPS 72 hours later (day3). From one hour after LPS injection, Galectin-3 Ab (1, 0.5 and 0.25 mg/mouse) and vehicle were each administered intraperitoneally once daily for 3 consecutive days starting on day 3. Whereas, indomethacin which served as the positive control was administered orally (3 mg/kg) once daily for 3 consecutive days at the same time schedule as test compound. For each animal, volumes of both hind paws were measured using a plethysmometer with water cell (12 mm diameter) on Days 0, 5, 7, 10, 14 and 17. Percent inhibition of increase in volume was calculated by the following formula: Inhibition (%): [1−(Tn−T0)/(Cn−C0)]×100% • Where: • C0 (Cn): volume of day 0 (day n) in vehicle control • T0 (Tn): volume of day 0 (day n) in test compound-treated group.
Reduction of edema in the hind paws by 30% or more (^3 30%) is considered significant. In addition, body weight was documented during the testing period of day 0, 5, 7, 10, 14 and 17 in each animal percentage of body weight of each compound group at time points were calculated referring to the vehicle control group at each measurement day as 100%.

rheumatoid arthritis = conditions: methotrexate treatment, known effect; cited from earlier work
[2] = test system: peripheral blood monocytes from healthy donors and rheumatoid arthritis patients; assay: Monocyte chemotaxis assay (96-well chemotaxis plates); assay type: cell-based, human; conditions: for migration of monocytes in combination with galectin-3: FIG. 14B, 14C
Experimental: Peripheral blood mononuclear cells (PBMCs) were isolated from 6 healthy volunteer donors and 6 rheumatoid arthritis (RA) patients following informed consent and in accordance with protocols approved by the AMC Medical Ethics committee. Donor blood was diluted with cold PBS and PBMCs isolated by centrifugation over Ficoll. The PBMC layer was recovered and washed twice with PBS. Cells were counted, and monocytes isolated using a Dynal monocytes negative isolation kit as per the manufacturer's instructions. Monocytes were resuspended at 2×10^6 cells/ml in RPMI medium containing 0.5% fetal calf serum.
Chemotaxis assays were performed using 96-well disposable chemotaxis plates (Neuroprobe, 8 μm diameter pore size). Wells were preincubated for 1 hour at 37° C. with medium alone (RPMI containing 0.5% fetal calf serum), murine anti-human galectin-3 antibody B2C10 (0.1, 1 or 3 μg/ml) or lactose (10 mM). Lactose is a non-specific inhibitor of galectin-3. Purified recombinant human galectin-3 (1, 10 or 100 nM) was also included in the preincubation step. 5×10^4 monocytes obtained from healthy donors were added to the top of the filter in triplicate wells and cells allowed to migrate for 90 minutes at 37° C. The filter was then washed with PBS, and adhering non-migrating cells removed from the top of the filter by wiping. Migrating cells within the filter Were visualized by staining with crystal violet solution and washing with water. Following air-drying overnight, a computer digital imaging analyzer was used to capture 20 high-powered (400× magnification) fields encompassing the complete transwell filter, and migrating cells counted manually. FIG. 12 provides the relative amount migration (chemotaxis) in the presence of varying levels of galectin-3 and inhibitors of galectin-3 activity (B2C10 and lactose).
In a second experiment, wells were preincubated for 1 hour at 37° C. with medium alone (RPMI containing 0.5% fetal calf serum), murine anti-human galectin-3 antibody B2C10 (0.1, 1 or 3 μg/ml) or lactose (10 mM). Lactose is a non-specific inhibitor of galectin-3. Purified recombinant human galectin-3 (1, 10 or 100 nM) was also included in the preincubation step. 5×10^4 monocytes obtained from rheumatoid arthritis patients were added to the top of the filter in triplicate wells and cells allowed to migrate for 90 minutes at 37° C. The filter was then processed as described above and migrating cells were counted manually. […]
Monocytes from 6 rheumatoid arthritis patient were stimulated with 6 different synovial fluids and monocyte chemotaxis was measured as described above in the presence of different concentrations of galectin-3 blocking antibody. […]

For `COc1ccc2c(c1)c(CC(=O)O)c(C)n2C(=O)c1ccc(Cl)cc1` [Indomethacin, indomethacin], the “(%) Reduction of Edema vs. Vehicle Control” value (from here on “(%) Reduction”) ([1]; Day 5, PO 3 mg/kg × 3, parenthesis = significant) was “(94) %”, the “(%) Reduction” value ([1]; Day 5, PO 3 mg/kg × 3, parenthesis = significant, listed as indomethacin) was 94% and the “(%) Reduction” value ([1]; Day 7, PO 3 mg/kg × 3, parenthesis = significant) was “(70) %”. The “(%) Reduction” value ([1]; Day 7, PO 3 mg/kg × 3, parenthesis = significant, listed as indomethacin) was 70%, the “(%) Reduction” value ([1]; Day 10, PO 3 mg/kg × 3, parenthesis = significant) was “(85) %” and the “(%) Reduction” value ([1]; Day 10, PO 3 mg/kg × 3, parenthesis = significant, listed as indomethacin) was 85%. The “(%) Reduction” value ([1]; Day 14, PO 3 mg/kg × 3, parenthesis = significant) was “(85) %”, the “(%) Reduction” value ([1]; Day 14, PO 3 mg/kg × 3, parenthesis = significant, listed as indomethacin) was 85% and the “(%) Reduction” value ([1]; Day 17, PO 3 mg/kg × 3, parenthesis = significant) was “(84) %”. For the same molecule, the “(%) Reduction” value ([1]; Day 17, PO 3 mg/kg × 3, parenthesis = significant, listed as indomethacin) was 84%.

For `CN(Cc1cnc2nc(N)nc(N)c2n1)c1ccc(C(=O)N[C@@H](CCC(=O)O)C(=O)O)cc1` [Methotrexate, methotrexate], the “decrease of synovial cell density” value (rheumatoid arthritis) is listed as “approximately 30%”, the “decrease of the concentration of IL-6 in synovial tissue” value (rheumatoid arthritis) is listed as 93% and the “decrease of the rate of cartilage degradation” value (rheumatoid arthritis) is listed as “approximately 15%”.

For “Galectin-3: purified recombinant human galectin-3”, the “induction of chemotactic activity, alone” value ([2]; healthy donor or RA peripheral blood monocytes, 1, 10 or 100 nM) was “does not reproducibly induce chemotactic activity” and the “monocyte chemotaxis in the presence of 1 ng/ml fMLP” value ([2]; single healthy donor, FIG. 14A) was “increases monocyte chemotaxis in a concentration dependent manner”.

For “MCP-1: Monocyte Chemotactic Protein-1, chemotactic cytokine”, the “migration of monocytes in combination with galectin-3” value ([2]; single healthy donor) was “induce migration”.

For “SDF-1: Stromal cell-Derived Factor-1, chemotactic cytokine”, the “migration of monocytes in combination with galectin-3” value ([2]; single healthy donor) was “induce migration”.
